The subject of assay [1] is Cryptococcus neoformans.
Description: Antifungal activity against Cryptococcus neoformans H99 ATCC 208821 (CO-ADD:FG_002); MIC in YNB media using NBS plates, by Resazurin OD(600-570)
For assay [2], the system named is Acinetobacter baumannii. As to the kind of experiment: microbe, parasite or virus in culture. The note with it: ATCC 19606, 18 h, ASSAY_TEST Inhibition of Bacterial Growth, detection method Absorption (OD600), MEDIA CAMHB, plate type 384well, NBS, CORNING #3640.
Description: Antibacterial activity against Acinetobacter baumannii ATCC 19606 (CO-ADD:GN_034); MIC in CAMBH media using NBS plates, by OD600
Assay [3] deals with Escherichia coli. As to the kind of experiment: microbe, parasite or virus in culture. The note with it: ATCC 25922, 18 h, ASSAY_TEST Inhibition of Bacterial Growth, detection method Absorption (OD600), MEDIA CAMHB, plate type 384well, NBS, CORNING #3640.
Description: Antibacterial activity against Escherichia coli ATCC 25922 (CO-ADD:GN_001); MIC in CAMBH media using NBS plates, by OD(600)
Assay [4] deals with Staphylococcus aureus. Kind of assay: microbe, parasite or virus in culture. The note with it: ATCC 43300, 18 h, ASSAY_TEST Inhibition of Bacterial Growth, detection method Absorption (OD600), MEDIA CAMHB, plate type 384well, NBS, CORNING #3640.
Description: Antibacterial activity against Staphylococcus aureus MRSA ATCC 43300 (CO-ADD:GP_020); MIC in CAMBH media, using NBS plates, by OD(600)
Assay [5] deals with Candida albicans. Kind of assay: microbe, parasite or virus in culture. As to conditions: ATCC 90028, ASSAY_TEST Inhibition of Fungal Growth, detection method Absorption (OD530), plate type 384well, NBS, CORNING #3640.
Description: Antifungal activity against Candida albicans ATCC 90028 (CO-ADD:FG_001); MIC in YNB media using NBS plates, by OD630
Assay [6] deals with Klebsiella pneumoniae. As to the kind of experiment: microbe, parasite or virus in culture. As to conditions: ATCC 700603, 18 h, ASSAY_TEST Inhibition of Bacterial Growth, detection method Absorption (OD600), MEDIA CAMHB, plate type 384well, NBS, CORNING #3640.
Description: Antibacterial activity against Klebsiella pneumoniae MDR ATCC 70063 (CO-ADD:GN_003); MIC in CAMBH media using NBS plates, by OD(600)
Assay [7] has as its system HEK293. As to the kind of experiment: cells. The class given is functional. The note with it: Homo sapiens, ATCC CRL1573, HEK293; ASSAY_TEST Inhibition of Cell Viability; detection method Resazurin; Fluorescence (ex560/em590); MEDIA DMEM with 10% FBS; plate type 384well; TC; CORNING #3712; time 18 hr. On the technique in general: The colour change of resazurin is a common sign of viable cells or microbes.

Assay [8] relates to Pseudomonas aeruginosa. Kind of assay: microbe, parasite or virus in culture. The note with it: ATCC 27853, 18 h, ASSAY_TEST Inhibition of Bacterial Growth, detection method Absorption (OD600), MEDIA CAMHB, plate type 384well, NBS, CORNING #3640.
Description: Antibacterial activity against Pseudomonas aeruginosa ATCC 27853 (CO-ADD:GN_042); MIC in CAMBH media using NBS plates, by OD(600)

Converted amounts (≈) assume the structure as drawn.

This is an account of results in ChEMBL document CHEMBL4296182, “CO-ADD screening of NIH NCI Diversity Set V”.

What is called CC50 is the concentration giving 50% cytotoxicity. High values mean better tolerance by the cells, low ones harm at low concentration. As for `CC(C)=NNc1ncnc2[nH]cnc12`, the MIC is 10 µM (≈ 1.9 µg/mL) in assay [1]; greater than 10 µM in assay [2]; greater than 10 µM in assay [3]; greater than 10 µM in assay [4]; 2.5 µM (≈ 0.476 µg/mL) in assay [5]; greater than 10 µM in assay [6]. For the same compound, in assay [8], the MIC was greater than 10 µM. For the same compound, the CC50 in assay [7] is greater than 10 µM.
Turning to `Cc1ccnc(NC(c2ccccc2)c2ccc3cccnc3c2O)c1` (stereo not given), the MIC in assay [1], in assay [2], in assay [3], in assay [4], in assay [5] and in assay [6] was greater than 10 µM each time. Besides, in assay [8], the MIC was greater than 10 µM. The CC50 in assay [7] is greater than 10 µM.
For `O=C1C=CC(=O)N1c1ccc(I)cc1Cl`, the MIC in assay [1], in assay [2], in assay [3], in assay [4], in assay [5] and in assay [6] was greater than 10 µM in each case. Moreover, in assay [8], the MIC is greater than 10 µM. Besides, in assay [7], the CC50 is greater than 10 µM.
As to `OC(c1cc(-c2ccc(Cl)cc2)nc2ccccc12)C1CCCCN1` (stereo not given), the MIC in assay [1], in assay [2], in assay [3], in assay [4], in assay [5] and in assay [6] was greater than 10 µM in each case. In assay [8], this compound registered an MIC greater than 10 µM. The CC50 in assay [7] was greater than 10 µM.
Regarding `Cc1c(-c2ccccc2)n(O)[n+]([O-])c1-c1ccccc1`, the MIC in assay [1], in assay [2], in assay [3], in assay [4], in assay [5] and in assay [6] was greater than 10 µM throughout. This compound also came in with an MIC in assay [8] greater than 10 µM. This compound showed a CC50 in assay [7] greater than 10 µM.
`NC1(N2SC(S)=C3CCCC=C32)CCCCC1`: the MIC was greater than 10 µM in assay [1]; greater than 10 µM in assay [2]; greater than 10 µM in assay [3]; 10 µM (≈ 2.68 µg/mL) in assay [4]; greater than 10 µM in assay [5]; greater than 10 µM in assay [6]. The MIC in assay [8] is greater than 10 µM. The CC50 in assay [7] is greater than 10 µM.
Regarding `N=C(N)NCCCS(=O)(=O)Nc1ccc(Nc2c3ccccc3nc3cc([N+](=O)[O-])ccc23)cc1`, the MIC in assay [1], in assay [2], in assay [3], in assay [4], in assay [5] and in assay [6] was greater than 10 µM in each case. In assay [8], the MIC was greater than 10 µM. In assay [7], this compound yielded a CC50 greater than 10 µM.
Regarding `Cc1ccc([S+]([O-])c2ccc([N+](=O)[O-])c3nonc23)cc1` (stereo not given), the MIC in assay [1], in assay [2], in assay [3], in assay [4], in assay [5] and in assay [6] was greater than 10 µM each time. Further, the MIC in assay [8] is greater than 10 µM. In assay [7], the CC50 was greater than 10 µM.
In the case of `C/C(=N/NC(=S)N1CC2CCC(CC2)C1)c1cnccn1`, the MIC in assay [1] is greater than 10 µM; in assay [2], greater than 10 µM; in assay [3], greater than 10 µM; in assay [4] it was greater than 10 µM; in assay [5], 2.5 µM (≈ 0.759 µg/mL); in assay [6], greater than 10 µM. This compound showed an MIC in assay [8] greater than 10 µM. The compound also showed a CC50 in assay [7] greater than 10 µM.
For `O=C(Nc1ccc(Cl)c(Cl)c1)Nc1ccc([N+](=O)[O-])cn1`, the MIC in assay [1], in assay [2], in assay [3], in assay [4], in assay [5] and in assay [6] was greater than 10 µM in each case. The MIC in assay [8] is greater than 10 µM. The compound also yielded a CC50 in assay [7] greater than 10 µM.
`Oc1cccc2nc3ccccc3nc12`: the MIC in assay [1], in assay [2], in assay [3], in assay [4], in assay [5] and in assay [6] was greater than 10 µM each time. The compound further showed an MIC in assay [8] greater than 10 µM. This compound had a CC50 in assay [7] greater than 10 µM.
In the case of `Oc1c(/N=N/c2nnn[nH]2)ccc2ccccc12`, the MIC in assay [1], in assay [2], in assay [3], in assay [4], in assay [5] and in assay [6] was greater than 10 µM each time. In addition, the MIC in assay [8] was greater than 10 µM. The compound also showed a CC50 in assay [7] greater than 10 µM.
On to `O=C(/C=C/c1cccnc1)c1ccccc1O`, for which the MIC in assay [1], in assay [2], in assay [3], in assay [4], in assay [5] and in assay [6] was greater than 10 µM each time. The MIC in assay [8] was greater than 10 µM. The compound also showed a CC50 in assay [7] greater than 10 µM.
`COc1ccccc1/C=C/C(=O)/C=C/c1ccccc1O`: the MIC in assay [1], in assay [2], in assay [3], in assay [4], in assay [5] and in assay [6] was greater than 10 µM throughout. Moreover, in assay [8], the MIC is greater than 10 µM. The midpoint of cytotoxicity in assay [7], the CC50, lay at 3.95 µM.
`O=C(Nc1ccc(Nc2ccncc2)cc1)c1ccc(Nc2ccnc3ccc([N+](=O)[O-])cc23)cc1`: the MIC in assay [1] was 2.5 µM (≈ 1.19 µg/mL); in assay [2] it was greater than 10 µM; in assay [3], greater than 10 µM; in assay [4], greater than 10 µM; in assay [5], greater than 10 µM; in assay [6], greater than 10 µM. The compound further came in with an MIC in assay [8] greater than 10 µM. In addition, the CC50 in assay [7] is greater than 10 µM.
As to `O=[N+]([O-])c1cc([N+](=O)[O-])c2cccnc2c1O`, the MIC in assay [1] is greater than 10 µM; in assay [2], greater than 10 µM; in assay [3], greater than 10 µM; in assay [4] it was greater than 10 µM; in assay [5] it was 10 µM (≈ 2.35 µg/mL); in assay [6] it was greater than 10 µM. For the same compound, in assay [8], the MIC was greater than 10 µM. In assay [7], the CC50 was greater than 10 µM.
Take `O=[N+]([O-])c1cnc(Sc2ccncn2)s1`: the MIC in assay [1] is 5 µM (≈ 1.2 µg/mL); in assay [2] it was greater than 10 µM; in assay [3] it was greater than 10 µM; in assay [4] it was greater than 10 µM; in assay [5], 5 µM (≈ 1.2 µg/mL); in assay [6], greater than 10 µM. In assay [8], this compound registered an MIC greater than 10 µM. This compound also came in with a CC50 in assay [7] greater than 10 µM.
Consider `Sc1nc2cc(-c3ccccc3)ccc2o1`, for which the MIC in assay [1], in assay [2], in assay [3], in assay [4], in assay [5] and in assay [6] was greater than 10 µM in each case. In addition, the MIC in assay [8] was greater than 10 µM. The same compound displayed a CC50 in assay [7] greater than 10 µM.
Turning to `Cc1nc(/N=N/c2ccccc2)[nH]c1/N=N/c1ccccc1`, the MIC in assay [1], in assay [2], in assay [3], in assay [4], in assay [5] and in assay [6] was greater than 10 µM each time. Also, the MIC in assay [8] was greater than 10 µM. The same compound came in with a CC50 in assay [7] greater than 10 µM.
Turning to `O=[N+]([O-])c1cc(F)c2cccnc2c1O`, the MIC in assay [1] is 10 µM (≈ 2.08 µg/mL); in assay [2], greater than 10 µM; in assay [3], greater than 10 µM; in assay [4], greater than 10 µM; in assay [5], 10 µM (≈ 2.08 µg/mL); in assay [6], greater than 10 µM. The MIC in assay [8] is greater than 10 µM. For the same compound, in assay [7], the CC50 is greater than 10 µM.
